Source: publication PMC11091243, “PD-L1 targeted peptide demonstrates potent antitumor and immunomodulatory activity in cancer immunotherapy” (Frontiers in Immunology, 2024)

Assays:
[1] = system: MDA-MB-231 cells; experiment: Flow cytometry binding to MDA-MB-231 cells; type: cell-based, human; conditions: higher PD-L1 expression than MC38
Procedure: (§1) Fluorescence-based ELISA and cell-based tests were used to examine the binding specificity of PPL-C to PD-L1. To perform the ELISA, fluorescent plates were coated with 100 μL human PD-L1 (hPD-L1), mouse PD-L1 (mPD-L1), and BSA in PBS (pH 7.4) overnight at 4°C, respectively. Blocked the plates with 1% BSA (in PBST) for an hour at room temperature and rinsed twice with PBST. Then added peptides (20 μmol/L FITC-labeled PPL-C/Control peptide) and incubated for 1.5 hours at room temperature. With excitation at 488 nm and emission at 515 nm, the Cytation 3 instrument (BioTek) was used to measure the relative fluorescence intensity. Both attached and detached cells were used in the cell-based flow cytometry analysis. […] After that, cells were treated for 40 minutes at 4°C on an inversion shaker with PD-L1 antibody from Biolegend and 4 μmol/L FITC-labeled peptides (PPL-C/Control peptide). Each tube was washed twice with PBS following incubation and flow cytometry was carried out using a FACSort device. FlowJo software was used to evaluate the data that was acquired.

[2] = system: splenic lymphocyte subsets of CT26-bearing Balb/c mice; experiment: Flow cytometry of spleen lymphocytes of CT26-bearing mice after treatment; type: in vivo; conditions: mouse, in vivo
Procedure: (§2) The mice’s tumor volumes were measured by calipers after they were randomly allocated to various treatment groups. Every day tumor volumes were measured along axes (a and b) that are orthogonal to one another, and they were estimated by the equation tumor volume = π/6 × a × b^2. After the tumor was established (approximately 7 days), each group was subcutaneously injected with PPL-C (6 or 11 mg/kg), control peptide (11 mg/kg), endotoxin-free PD-L1 antibody (200 μg), or control antibody, following specific treatment procedures outlined in the flow chart. The Kaplan-Meier technique was used to determine survival differences for each group, and the log-rank test using the survival R package version 2.38-3 was applied to get the overall p-value.
To differentiate lymphocytes, spleen monocytes were separated via isodensity centrifugation. For flow cytometry evaluation, cell-surface and intracellular staining was achieved through reagents from BD Biosciences or Biolegend, following previously described protocols. Re-suspending the 1× 10^6 cells in 100 μL of PBS before incubating them with the appropriate antibodies. Data were collected using a BD Biosciences FACSCalibur flow cytometer, Germany, and analyzed using FlowJo 7.6 software, USA. Based on scatter signals and 7-Amino-actinomycin D fluorescence, dead cells, and cell debris were removed from the study.

[3] = molecular target: T1, PD-1/PD-L1 binding (Homo sapiens, UniProt Q9NZQ7); experiment: ELISA competition of peptides with PD-1 for binding to PD-L1; conditions: n = 3, effect increases with peptide concentration
T1 construct: PD-1: 10377-H08H
Procedure: After seven phages were grown and purified, the solution was diluted 10 times to produce eight gradients. To ascertain the phage’s affinity for PD-L1, an ELISA test was run. Briefly, 96-well plates were filled with 150 µL of PD-L1 ([…]) in assay diluent (BioLegend, San Diego, CA), and incubated at 4°C overnight. 5% BSA in water was used to block the wells for two hours at 4°C. Following washing, 100 µL of phage diluent was added to each well, and they were shaken for two hours at room temperature. The wells were then treated with HRP-conjugated anti-M13 antibody at dose of 1:5000. With 100 µL of HRP substrate, the reaction was observed, and the OD410 was determined. By deducting the OD value of each phage binding to BSA-coated wells from the OD value of that phage binding to PD-L1, the specific binding of each phage to PD-L1 was computed. Three duplicate runs of this assay were made. GraphPad Prism 6 software was used to compute each phage binding affinity by nonlinear regression and convert it to a Scatchard plot. ELISA was used to evaluate the candidate peptides capacity to inhibit PD1/PD-L1 binding. The subsequent stages were the same as those previously outlined. Following incubation, OD410 was determined by goat anti-rabbit monoclonal antibody that had been HRP-labeled and rabbit anti-human PD-L1 protein monoclonal antibody.
To assess the effect of PPL-C peptide interference, PD-L1 binding to PD-1 was investigated using ELISA and cell-based analysis. For the ELISA, 100 μL of mouse PD-L1 in PBS was coated in each well of a 96-well plate and incubated the plate at 4°C overnight. On the second day, 1% BSA in PBST was used to block the plate. Each well was then filled with 200 nmol/L biotinylated PD-1 and FITC-labeled PPL-C peptides (at final concentrations of 40, 20, 10, 5, or 2.5 μmol/L) before 1.5 hours incubating at room temperature. After two PBST washes, the relative FITC fluorescence intensity was measured using a Cytation 3 instrument. […] After two PBST washes, the Cytation 3 device was used to detect PE fluorescence intensity. […] Samples were analyzed by flow cytometry.

[4] = system: CT26 tumor; type: in vivo, mouse
Procedure: The investigators conducting the animal studies were not blinded. […] The mice were then randomized into different treatment groups.
as §2

[5] = system: MC38 cells; experiment: Flow cytometry binding to MC38 cells; type: cell-based, mouse; conditions: relatively low PD-L1 expression
Procedure: as §1

[6] = molecular target: human PD-L1 (hPD-L1) (Homo sapiens, UniProt Q9NZQ7); experiment: Fluorescence-based ELISA, binding specificity; conditions: 20 μmol/L FITC-labeled peptide, 1.5 h room temperature, n = 3
Procedure: as §1

[7] = system: Swiss mice; type: in vivo, mouse; conditions: twice intraperitoneal 180 mg/kg (30 times effective amount), observed 14 days, data not shown
[8] = system: CT26 cells; experiment: CCK8 proliferation assay on CT26 cells; type: cell-based, mouse; conditions: 0.1-1 mg/ml, 8 or 24 h, CCK8, n = 3
Procedure: To observe the impact of PPL-C on tumor cells and lymphocyte proliferation, the Counting Kit 8 (CCK8) reagent was employed. 20,000 cells/well were cultured in 96-well plates. Cells were treated for 8 or 24 hours with PPL-C (0.1, 0.25, 0.5, and 1 mg/ml) or not. Following the manufacturer guidelines, 10 µl of the CCK8 reagent (from Biotech Bioengineering, Cat: E606335) was applied to each well two hours before the incubation period ended. Using an ELISA plate reader from Molecular Devices (United States) the sample absorbance was calculated at 450 nm. To ensure repeatability, each experiment was replicated. By assessing absorbance at 450 nm, the CCK8 assay measures cell viability and proliferation.

T1 sequence (Q9NZQ7 19-239 limits assumed): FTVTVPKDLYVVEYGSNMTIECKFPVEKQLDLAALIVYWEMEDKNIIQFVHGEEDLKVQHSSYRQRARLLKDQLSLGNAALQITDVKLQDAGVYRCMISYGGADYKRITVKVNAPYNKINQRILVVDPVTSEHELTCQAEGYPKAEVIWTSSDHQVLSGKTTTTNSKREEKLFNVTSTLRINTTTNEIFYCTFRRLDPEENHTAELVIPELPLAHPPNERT
Chain of human PD-L1 (hPD-L1) (Q9NZQ7 19-290): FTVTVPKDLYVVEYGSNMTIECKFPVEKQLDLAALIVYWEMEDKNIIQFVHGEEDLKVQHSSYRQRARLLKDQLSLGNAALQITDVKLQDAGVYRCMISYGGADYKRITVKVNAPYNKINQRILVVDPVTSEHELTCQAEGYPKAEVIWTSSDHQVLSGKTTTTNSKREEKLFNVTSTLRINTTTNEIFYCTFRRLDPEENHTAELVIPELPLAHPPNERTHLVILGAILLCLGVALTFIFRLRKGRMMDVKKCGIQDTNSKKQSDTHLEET

CC(C)[C@H](NC(=O)[C@H](CO)NC(=O)[C@@H](NC(=O)[C@@H](N)CO)C(C)C)C(=O)N[C@@H](CO)C(=O)N[C@@H](Cc1c[nH]cn1)C(=O)N[C@@H](Cc1ccccc1)C(=O)N[C@@H](CCC(N)=O)C(=O)N[C@@H](CCCCN)C(=O)N[C@H](C(=O)N[C@@H](Cc1c[nH]c2ccccc12)C(=O)N[C@H](C(=O)N[C@H](C(=O)NCC(=O)NCC(=O)NCC(=O)N[C@@H](CO)C(=O)N[C@@H](CCCCN)C(N)=O)C(C)C)C(C)C)C(C)C [PPL-C]
Affinity to MDA-MB-231 cells [1]: higher affinity | Percentage of NK cells in spleen (CD49b/Nkp46, upper right quadrant) [2]: 7.79% | Competition with PD-1 to bind PD-L1 (blocking of PD-L1/PD-1) [3]: significant blocking effect | Increase in survival time of CT26 tumor-bearing mice ([4]; 11 mg/kg s.c. around the tumor, dosing-schedule study, saline as negative control): approximately 50% | Increase in survival time compared to the control peptide ([4]; reduced dose, s.c. around the tumor every day or every other day): approximately 50% | Survival time of CT26 tumor-bearing mice ([4]; reduced dose, s.c. around the tumor every day or every other day, n = 6, P<0.001): 81 days | Affinity to MC38 cells [5]: low affinity | Binding to hPD-L1 [6]: cross-reactivity | Acute toxicity [7]: no acute toxicity | Growth of CT26 cells after peptide administration (direct cytotoxicity) [8]: grew normally
